# Measured values from patent US20040122209A1, “Products for regulating the degradation of collagen and methods for identifying same” (Shriners Hospital For Children, priority 2002, published 2004).
# Legend:
# MMP-1 [1] = assay: ELISA for MMP-1 in conditioned medium of human chondrocytes; assay type: cell-based; conditions: 48 hours; CB12-II 50 μM, TNF-α 50 ng/ml
# Experimental: First-passaged normal human chondrocytes isolated by the method described above and cultured at high density (2×10^5 cells/cm^2) were trypsinized and resuspended in Medium A containing 1% FCS at a density of 10^6 cells/ml. Then, 200 μl of the cell suspension was each plated onto round-bottomed 96-well culture plate. On the next day after plating, CB12-II at 50 μM, USP at 50 μM, and TNF-α at 50 ng/ml were added to the culture media, and the culture was maintained for 24-48 hours. Conditioned media were collected and subjected to ELISA assay. The ELISA kits (BIOTRAK) for MMP-1 and MMP-13 were purchased from Amersham Pharmacia Biotech (Piscataway, N.J.). Measurement range was 6.25-100 ng/ml for MMP-1 and 0.094-3 ng/ml for MMP-13. Sensitivity for the assay was 1.7 ng/ml for MMP-1 and 0.7 ng/ml for MMP-13.
# Protein levels of MMP-1 and MMP-13 were also tested by incubating isolated human chondrocytes for 48 hours in high density culture (10^6 cells/ml) with CB12-II, negative control peptide USP, or cytokine TNF-α, as discussed above. MMP-1 and MMP-13 secretion into medium from the cells was measured using ELISA (see FIGS. 9A and 9B).
# MMP-1 [2] = assay: RT-PCR of MMP-1 mRNA in human chondrocyte culture; assay type: cell-based; conditions: 24 hours incubation; data not shown
# Description: Isolated normal human chondrocytes were used for chondrocyte cultures, detection of integrin expression by FACScan, and cell attachment assays. The dissected normal human cartilage obtained at autopsy was cut into small cubes 2-4 mm in size. Chondrocytes were isolated as previously described (34), with some modifications. Briefly, the cubes were washed three times with medium (A). Thereafter, the diced cartilage was digested with 0.1% (wt/vol) trypsin (Sigma) and 0.02% (wt/vol) EDTA (Sigma) for 60 minutes (25 ml/10 g wet weight tissue) at 37° C. After washing the cartilage with Medium A containing 10% heat-inactivated fetal calf serum (FCS) to inhibit the trypsin, the digestion was continued in the same medium with serum (50 ml/10 g wet weight tissue) containing 0.2% (wt/vol) collagenase (type IA; Sigma) for 16 h at 37° C. with gentle agitation on a gyrotary shaker. Undigested cartilage was removed by filtration through a layer of nylon mesh (Cell Strainer; Becton Dickinson Labware, NJ). […]
# Total RNA was isolated from chondrocytes or cartilage explants by the guanidine isothiocyanate procedure according to Chomczynski and Sacchi (Chomczynski, P. et al., Anal. Biochem. 162:156-9 (1987)) with some modifications. […] The total RNA pellet was resuspended in diethyl pyrocarbonate-treated (DEPC) water and the amount of total RNA was measured by reading optical density at 260 nm. […]
sequence,measurement,setting,value
ERGPPGPQGARGFPGTPGLPGVK [CB12-II],MMP-1 secretion into medium versus no peptide and negative control peptide (USP),MMP-1 [1],significantly higher
same,MMP-1 gene expression (mRNA by RT-PCR),MMP-1 [2],clearly induced
